Consider two compounds from US20150322033A1, “ANTIBACTERIAL AGENT” (priority 2012, published 2015).

The target in one experiment is T1, GyrA(S84L) + GyrB(wt) (Staphylococcus aureus, UniProt P20831, S84L).
T1 construct: made in house; host or cells: E. coli BL21(DE3)
The experiment in a line: DNA cleavage assay with mutant GyrA(S84L) and GyrB(wt). Format: biochemical. Conditions: for pIC50: Example 4, Table 15, from ratio of cleaved DNA. From the text: E. coliBL21(DE3) (produced by Invitrogen) was transformed with pMAL-c2-gyrA mentioned above, with pMAL-c2-gyrB mentioned above, or with pMAL-c2-SAGAmut84 containing a mutant gyrA encoding the amino acid sequence of GyrA(wt) in which serine residue at the 84th position from the amino terminus is substituted with a leucine residue (see, Hiramatsu K., Igarashi M., Morimoto Y, Baba T., Umekita M., Akamatsu Y., Int. J. Antimicrob. Agents, 2012 June; 39(6), 478-85). To the culture medium of the resulting transformed Escherichia coli, 1 mM […] (produced by Wako Pure Chemical Industries) was added to induce expression of maltose-binding GyrA(wt), maltose-binding GyrB(wt), or maltose-binding mutant GyrA(S84L), and the bacterium was cultured overnight at 25° C. After completion of the culture, the cells were collected, and suspended in a buffer (20 mM Tris-HCl (pH 8.0), 200 mM sodium chloride, 1 mM ethylenediaminetetraacetic acid (EDTA), 1 mM dithiothreitol (DTT)), a protein extracting reagent (10× BugBuster (registered trademark), produced by Novagen) in a volume of 1/10 of the volume of the buffer, and 2.5 μL/10 mL of the buffer of Benzonase (registered trademark) nuclease (produced by Novagen) were added, the mixture was left standing at 25° C. for 30 minutes, and the cells were disrupted and lysed to obtain a disrupted cell suspension containing the maltose-binding GyrA(wt), maltose-binding GyrB(wt), or maltose-binding mutant GyrA(S84L).
Then, each disrupted cell suspension mentioned above was added to a column filled with an amylose resin covalently bound with maltose (produced by Novagen). A buffer (20 mM Tris-HCl (pH 8.0), 200 mM sodium chloride, 1 mM EDTA) containing 10 mM maltose was added to the column to elute the maltose-binding GyrA(wt), maltose-binding GyrB(wt), and maltose-binding mutant GyrA(S84L).
To each eluate, 4 units/1 mL of the eluate of protease (Factor Xa, produced by Amersham) was added, and the mixture was left standing at 25° C. for 3 hours and 30 minutes to cleave the maltose-binding proteins, GyrA(wt), GyrB(wt), and mutant GyrA(S84L) from the maltose-binding GyrA(wt), maltose-binding GyrB(wt), and maltose-binding mutant GyrA(S84L).
Then, GyrA(wt), GyrB(wt), and mutant GyrA(S84L) were concentrated by using an ultrafiltration unit (YM-50 Filter Unit, produced by Millipore).
The concentrated GyrA(wt), GyrB(wt), and mutant GyrA(S84L) were each suspended in a buffer (35 mM Tris-HCl (pH 7.5), 24 mM potassium chloride, 6 mM magnesium chloride, 1.8 mM spermidine, 0.36 mg/mL bovine serum albumin, 5 mM DTT, 50 volume % glycerol) at a concentration of 1 μg/μL for GyrA(wt), 2 μg/μL for GyrB(wt), or 1 μg/μL for mutant GyrA(S84L).
An assay was performed in the same manner as that of the cleavage of the plasmid DNA with GyrA(wt) and GyrB(wt) mentioned above, provided that 0.15 μL of an enzyme solution of mutant GyrA(S84L) and 0.2 μL of the enzyme solution of GyrB(wt) were added instead of […] of the enzyme solution of GyrA(wt) and 0.2 μL of the enzyme solution of GyrB(wt). In FIGS. 3 and 4, the symbols “S”, “L”, and “N” have the same meanings as those explained for FIGS. 1 and 2.
IC50 value of levofloxacin or apigenin was also calculated from the visualized images shown in FIGS. 3 and 4 in the same manner as that used for the calculation using the results shown in FIGS. 1 and 2.
The DNA cleavage assay was performed with M-246 in the same manner as that used in Example 4.

The subject of experiment [1] is levofloxacin-susceptible Staphylococcus aureus strain MS5935-1. The experiment in a line: Emergence frequency of levofloxacin-resistant Staphylococcus aureus on agar plate medium. Format: cell-based. Conditions: for Emergence frequency of levofloxacin resistance mutation (mutations/genera): FALCOR. From the text: Emergence frequency of levofloxacin-resistant Staphylococcus aureus was examined in the presence or absence of apigenin by using a levofloxacin-susceptible Staphylococcus aureus strain according to the following method.
(§1) The levofloxacin-susceptible Staphylococcus aureus strain MS5935-1 (strain in which the 80th serine residue from the amino terminus of the wild-type topoisomerase IV encoded by parC is mutated with phenylalanine residue, see, Hiramatsu K., Igarashi M., Morimoto Y, Baba T., Umekita M., Akamatsu Y., Int. J. Antimicrob. Agents, 2012 June; 39(6), 478-85) was cultured overnight at 37° C. with shaking in 4 mL of TBS (produced by Dickinson). After completion of the culture, the cells were suspended in fresh TBS, and the cell suspension was adjusted to have an absorbance of 0.3 measured at 578 nm. Then, the cell suspension was diluted 10,000 times with TBS. This diluted cell suspension was inoculated (0.1 mL each) into ten test tubes containing 4 mL each of TBS, and preculture was carried out overnight at 37° C.
Levofloxacin was dissolved in sterilized water at a concentration of 40 mg/L. This solution of levofloxacin was added on plates in a volume of 1 mL/plate, and 9 mL of M-H (Mueller Hinton) Agar (produced by Becton, Dickinson and Company) was added to each plate. Five of such plates were prepared. […]
Number of the colonies formed on each agar plate medium after the culture of 2 days was counted. The emergence frequency of levofloxacin-resistant Staphylococcus aureus was calculated according to the following equation using the number of colonies and the number of bacterial cells inoculated onto each agar plate medium (CFU, colony forming unit). Further, from the calculated emergence frequency of the levofloxacin-resistant Staphylococcus aureus, emergence frequency of levofloxacin resistance mutation and 95% confidence interval (CI range) were calculated by using FALCOR (Fluctuation AnaLysis CalculatOR, http://www.keshaysingh.org/protocols/FALCOR.html, see, Hall B. M. et al., Bioinformatics., 2009, 25(12), 1564-5). […]

In a further experiment the test system is S. aureus MS5935-1. In words: MIC for S. aureus MS5935-1. It counts as cell-based. Conditions: Staphylococcus aureus, MS59351. As to the method:
as §1

SMILES strings stand for the structures. pIC50: −log10 of the molar value. Values after ≈ are worked out from the molar mass of the structure shown. Values joined by “and” are separate entries in the source; they are usually repeats but may differ in a detail not shown here. Equal values may be shown once. Read-outs that look alike come from different tables or passages of the source.

The MIC is the least concentration at which growth counts as inhibited. Consider `C[C@H]1COc2c(N3CCN(C)CC3)c(F)cc3c(=O)c(C(=O)O)cn1c23` [Levofloxacin, levofloxacin, reference compound], for which the pIC50 on GyrA(S84L) + GyrB(wt) (read-out: IC50 (μg/mL) GyrA(S84L) + GyrB(wt)) is < 4.05. The “Emergence frequency of levofloxacin resistance mutation (mutations/genera)” value in experiment [1] (agar plate medium with LVFX 4 mg/L, apigenin 0) was 1.45 × 10^−9 mutations/genera. The same compound had an MIC in the experiment with S. aureus MS5935-1 of 0.5 µg/mL (≈ 1.38 µM).

In general, IC50 refers to the concentration needed to halve the response being measured. Turning to `O=c1cc(-c2ccc(O)cc2)oc2cc(O)cc(O)c12` [No. 7, 4′,5,7-Trihydroxyflavone], on GyrA(S84L) + GyrB(wt) (FIG. 3 and 4), the “inhibitory activity against the mutant DNA gyrase” value was “concentration-dependent inhibitory activity”. Further, the pIC50 on GyrA(S84L) + GyrB(wt) (IC50 (μg/mL) GyrA(S84L) + GyrB(wt)) was ~4.53 and 4.53. In addition, on GyrA(S84L) + GyrB(wt) (IC50 mutant GyrA(S84L) and GyrB(wt), value in μM), the IC50 is ~29.6 µM. The “Emergence frequency of levofloxacin resistance mutation, medium with levofloxacin and apigenin / medium with levofloxacin” value in experiment [1] (LVFX 4 mg/L, apigenin 32 mg/L) is 1/29. Also, the “Emergence frequency of levofloxacin resistance mutation (mutations/genera)” value in experiment [1] (agar plate medium with LVFX 4 mg/L and apigenin 32 mg/L) is given as 0.05 × 10^−9 mutations/genera. The MIC in the experiment with S. aureus MS5935-1 was > 128 µg/mL.
